Entries after “also recorded” stand apart in the source; their conditions may differ.
Experiments:
melanoma HTB67 = assay: Confocal microscopy apoptosis; format: cell-based, human; details: 200 ng/ml; 24 hrs
Method: (§1) More extensive studies of the effects of MA and with truncated synthetic forms of MA (MAS) on a wide range of other human tumor cells were carried out using three-dimensional confocal microscopy. Cells were cultured and then seeded onto gelatinized glass chamber slides and incubated 24 hrs with the various test materials. The slides were then fixed with formalin and treated serially with Triton X-100 (0.01%) for 10 min at 25°, 0.4 ug/ml fluorescein isothiocyanate (FITC)-labeled Phalloidin (Sigma Chem. Co.) at room temperature for 30 min to bind actin, washed with PBS and the DNA stained with Propidium iodide (PI) (0.5 ug·ml) (Sigma Chemical Co.), for 15 min. The stained slides were washed and mounted on slow fade (Molecular Probes, Inc., Eugene, Oreg.) and examined through a dual emission filter XF53 (Omega, Inc., Brattlesboro, Va.) by fluorescent microscopy. In some experiments only DNA staining was performed. In these instances Triton X-100 was not used. The slides were stained with PI and examined for cell morphology and chromatin degradation under 3D confocal microscopy.

[1] = system: prostate carcinoma cell line PC3; assay: Confocal microscopy apoptosis; format: cell-based, human; details: 200 ng/ml; 24 hrs
Method: as §1

[2] = system: leukemia and lymphoma cell lines: HUT78, DAVDI, HG, SULTAN, T-cell lymphoma; assay: Confocal microscopy apoptosis; format: cell-based, human; details: 200 ng/ml; 24 hrs
Method: as §1

[3] = system: carcinoma of the breast HTB124; assay: Confocal microscopy apoptosis; format: cell-based, human; details: 200 ng/ml; 24 hrs
Method: as §1

gliobastoma HTB16 = assay: Confocal microscopy apoptosis; format: cell-based, human; details: 200 ng/ml; 24 hrs
Method: as §1

fibrosarcoma 4TB166 = assay: Confocal microscopy apoptosis; format: cell-based, human; details: 200 ng/ml; 24 hrs
Method: as §1

KS Y-1 cells = assay: Confocal microscopy apoptosis; format: cell-based, human; details: 200 ng/ml; 24 hrs
Method: as §1

[4] = system: carcinoma of the lung HTB184; assay: Confocal microscopy apoptosis; format: cell-based, human; details: 200 ng/ml; 24 hrs
Method: as §1

carcinoma of the colon = assay: Confocal microscopy apoptosis; format: cell-based, human; details: 200 ng/ml; 24 hrs
Method: as §1

[5] = system: prostate carcinoma cell line PC4; assay: Confocal microscopy apoptosis; format: cell-based, human; details: 200 ng/ml; 24 hrs
Method: as §1

[6] = system: carcinoma of the kidney HTB46; assay: Confocal microscopy apoptosis; format: cell-based, human; details: 200 ng/ml; 24 hrs
Method: as §1

Ewing's sarcoma = assay: Confocal microscopy apoptosis; format: cell-based, human; details: 200 ng/ml; 24 hrs
Method: as §1

[7] = system: carcinoma of the pancreas CRL 1682; assay: Confocal microscopy apoptosis; format: cell-based, human; details: 200 ng/ml; 24 hrs
Method: as §1

[8] = system: spontaneous breast carcinomas; assay: Spontaneous breast carcinomas in Sprague-Dawley rats; format: in vivo; details: 2 weeks of therapy
Description: As shown, MA killed a wide variety of human tumor cells in vitro and in vivo killed xenotransplanted human tumors in immune deficient mice. We wanted to be certain that the in vivo results would not be limited to immune deficient mice. […] Therefore, we tested the effects of MA on: • spontaneous fibrosarcomas which developed in three older FVB/N mice; and • spontaneous breast carcinomas which developed in three older Sprague-Dawley rats.
Similar results were obtained with the spontaneous mammary carcinomas of rats.

SIVMAC 251 = SIVMAC 251 infected rhesus macaques; format: in vivo; details: end-stage disease
Description: Certain strains of SIV produce an AIDS-like illness in susceptible monkeys. Among them SIVMAC 251 induces disease in rhesus monkeys similar to AIDS in humans only with much greater rapidity.^174 Therapy with purified MA of 3 monkeys with end-stage disease infected 13-14 mos earlier was initiated when the animals were losing weight, highly viremic (plasma virus 0.5 to 3×10^6 copies of SIV RNA/ml by NASBA), and developing pancytopenia. […] In contrast, most untreated animals died by this period. Though the limitation of animal number precludes strong conclusions related to survival.
Far more impressive were experiments performed soon after infection (3 weeks). In these experiments, crude urinary preparations containing MA, but not crude fractions lacking MA, were inoculated subcutaneously. Using a 10^4.5 TCID50 of cell free SIVmac 251, the characteristic rise in SIV p27, reduction of CD4+ T-cells, and weight loss, which occurred in the untreated animals, was prevented in MA treated animals. The untreated animals died before 6 mos. […] However, stopping therapy led to rapid onset of virus production and development of AIDS-like disease.

[9] = Toxicity in animal studies; format: in vivo, rats, mice; details: incl. rhesus macaques 0.2 mg/kg for several months
Method: These cells included human, primate, and rodent bone marrow, PBMCs, and human CD4+ T-cells, CD8+ T-cells, CD34+ cells, and macrophages enriched from normal PBMCs, as well as normal human endothelial cells and fibroblasts. Cytotoxicity was assessed by 3H-thymidine incorporation, trypan blue staining, cell numbers, and morphological examination by light and confocal microscopy. Hematopoiesis was not only unimpaired it was promoted. […] These studies were chiefly performed with rats and mice, but also included rhesus macaques treated with 0.2 mg/kg for several months. Like the in vitro results, hematopoiesis was not impaired but instead enhanced.

HIV-1 = system: HIV-1
Method: Virus (MOI of 0.001) was added to 10^6 cells in RPMI-1640 with 10% FCS. One hour later the various polypeptides were added once. The cells cultured for 3 days with 5 ug PHA and 20 i.m. of II-2/ml at 37°, after which virus was estimated by determining p24 (HIV-1) or p27 (SIV) (Organon-Teknika).
The effect of native and synthetic MA on HIV-1 infection in vitro was evaluated using PHA and II-2 stimulated primary peripheral blood cells (PBMC), CD4+ T-cells enriched fractions from PBMC, and CD14+ macrophage enriched fractions. Infection was with HIV-1 IIIB (PBMC and CD4+ T-cells), HIV-1 Ba-L (macrophages), and two primary HIV-1 isolates not passaged in any cell line (PBMC).

[10] = system: human bone marrow stem cells; assay: Engraftment of ex vivo expanded hematopoietic progenitor cells in irradiated rats; set-up: species or system Sprague Dawley rats; details: Rat S. Dawley irradiated 450 RAD; n = 3
Description: The inventors also investigated the effect of MA on engraftment of human bone marrow stem cells [CD34^+, CD38″ cells, long term cultures after 4 mos, and stromal free cultures] ex vivo expanded hematopoietic progenitor cells in Rats irradiated [Sprague DAwley, 450 Rad] and immunodeficient mice [SCID or BNX-XID mice].
Measurement of short-term hematopoietic reconstitution kinetics and long term repopulating ability. Just prior to implantation, SCID, BNX-XID-immunodeficient mice and Sprague Dawley rats were exposed to 450 rad total body γ-irradiation. […] But the SCID and BNX-XID immunodeficient mice were repopulated by the cultured, treated human cells.

VVCNYRDVRFESIRLPGCPRGVNPVVSYAVALSCQ [MA]
induction of apoptosis (melanoma HTB67): induced apoptosis
induction of apoptosis [1]: induced apoptosis
induction of apoptosis [2]: induced apoptosis
induction of apoptosis [3]: induced apoptosis
induction of apoptosis (gliobastoma HTB16): induced apoptosis
induction of apoptosis (fibrosarcoma 4TB166): induced apoptosis
induction of apoptosis (KS Y-1 cells): induced apoptosis
induction of apoptosis [4]: induced apoptosis
induction of apoptosis (carcinoma of the colon): induced apoptosis
induction of apoptosis [5]: induced apoptosis
induction of apoptosis [6]: induced apoptosis
induction of apoptosis (Ewing's sarcoma): induced apoptosis
induction of apoptosis [7]: induced apoptosis
tumor outcome [8]: complete tumor regression; also recorded: partial tumor regression
weight and T-cell number (SIVMAC 251): stabilization and in some instances even increase
change in SIV titer (SIVMAC 251; 0.2 mg/kg 3 times weekly, 6 mos): no significant change
deaths in observation period (SIVMAC 251; 6 mos): none of the 3 animals died
toxic side effects grossly or by blood counts [9]: no evident toxic side effects
inhibition of primary HIV-1 isolates in PBMCs (HIV-1): inhibited replication
IC50 (HIV-1; read-out: concentration at which virus production was inhibited 50%, IIIB and Ba-L, p24 in extracellular fluid): ~30 nM
CD4 [10]: 1%
CD14 [10]: 1%
CD34 [10]: 40%

Reference: patent publication US9175077B2, “Nucleic acids encoding biologically active polypeptides derived from a novel early stage pregnancy factor designated maternin (MA)” (NOBEL BIOSCIENCES LLC, priority 1999, dated 2015)
